For one series, the system named is HEp3 cells. As to the kind of experiment: Transwell migration with pathway inhibitors, with or without anti-CD151 antibody 1A5. It counts as cell-based, human.
For series [1], the system named is PC3 cells. The series can be described thus: ALCAM shedding in conditioned media of cytokine-treated cells (ELISA). It counts as cell-based, human. Particulars: PC3 concentrated conditioned media; 8 agents tested.
Series [2] relates to PC3 cells. The series can be described thus: ALCAM expression in response to TGFβ (RT-PCR, Western blot). It counts as cell-based, human. How it is done:
(§1) SDS-PAGE and immunoblotting. Cells (2.5×10^5) were plated in 6-well dishes. After 24 h, cells were serum starved in Opti-MEM for 16 h and then treated in the presence or absence of indicated growth factors or inhibitors, for 48 h. After that, the cells were lysed in TNE Lysis Buffer (20 mM Tris-Cl [pH 7.4], 0.5 mM EDTA, 1% Triton X-100, 150 mM NaCl, protease inhibitor cocktail (sigma), 1 mM phenylmethylsulfonyl fluoride). Total protein in the lysates was quantified using BCA assay (BioRad). Conditioned media samples were concentrated with microcon centrifugal filters (Millipore) following manufacturers protocol, which were eluted directly in 5× sample buffer for Western blot analysis. Protein loading for conditioned-medium samples for Western blot analysis was adjusted according to the total protein in cell lysates. Conditioned media and total protein was subjected to SDS-PAGE and electrophoretic transfer to polyvinylidene difluoride membranes (Immobilon P, Millipore, Inc., Bedford, Mass.). Immunodetection was done by conventional chemiluminescence
(§2) The mRNA samples were prepared from tumor cells lysed in TRI Reagent (Ambion) and purified using phenol extraction, followed by real-time polymerase chain reaction (RT-PCR). The following qPCR primers were used ALCAM, […] (forward) and […] (reverse); ADAM17, […] (forward) and […] (reverse); and glyceraldehyde-3-phosphate dehydrogenase, […] (forward) and TTCCCCATGGTGTCTGAGC (reverse).
(§3) ALCAM is proteolytically shed from PC3 cells (FIG. 21). Absence of the cytoplasmic tail confirms that the ectodomain is shed (FIG. 21A). Moreover, ALCAM is absent from PC3-derived exosomes ensuring that the ectodomain is shed and not released with cell-derived microparticles (FIG. 21B). Since prostate cancer disseminates predominantly to bone we selected cytokines thought to be involved in this process, including TGFβ. […] To further explore the response to exogenous stimulation with TGFβ, ALCAM expression in PC3 cells was compared to ALCAM expression in LNCaP cells which are unable to respond to the cytokine because they lack TGFβ receptor type I (FIGS. 23B and 23C). […] TGFβ-induced expression in PC3 cells could be abrogated with the small molecule inhibitor SB431542 (FIG. 23D, 10 μm; Sigma) while TGFβ-induced ALCAM mRNA and protein expression could be restored in LNCaP cells when the cells were transfected with dominant-active TGFβ receptor type I (FIGS. 23E and 23F).

The next series concerns LNCaP cells. Described as above. Type of series: cell-based, human. Particulars: lack TGFβ receptor type I. The protocol: as §1, §2, §3
For a further series, the system named is Rap1A. The series can be described thus: Rap1 activation assay (GTP-bound Rap1A pull-down, immunoblot). It counts as cell-based. The conditions noted are these: HEp3 cells; PKCα inhibited by pharmacological means. (Immunoblotting shows a protein as a band on a membrane.)
The nature of series [3]: In vivo ALCAM serum half-life. Particulars: serum injected retrorbitally in ALCAM KO mice; ELISA. How it is done:
Serum was harvested from ALCAM wild-type, mixed background, mice and pooled. Combined serum collected from WT mice was injected retrorbitally in ALCAM KO mice (100 μl/mouse). ALCAM KO mice were pre-bled via saphenous vein bleed, and then bled at 10 mins, 2 hours, 4 hours, 24 hours and 48 hours (n=2/time point; total n=10). WT pooled serum was used as ELISA control to quantitatively determine ALCAM serum half-life.
To determine if tumor-derived ALCAM is the source of elevated circulating ALCAM, species-specific antibodies were used to monitor circulating levels of both host (mouse) ALCAM and tumor (human) ALCAM longitudinally during orthotopic and subcutaneous growth of PC3 cells (FIG. 24). The half-life of human ALCAM in the circulation of its mouse host was determined to confirm that tumor-derived ALCAM could act as a stable biomarker in vivo (FIG. 25).
(In general: ELISA stands for enzyme-linked immunosorbent assay.)

Where [4] appears, read: HEp3 cells, ± anti-CD151 antibody 1A5.

Like-named read-outs stand apart in the source and are kept apart here.

Consider 6 molecules from US10585102B2, “Characterization of cancer using detection of activated leukocyte cell adhesion molecule (ALCAM) shedding” (Vanderbilt University, priority 2012, dated 2020).

Experimental for HEp3 cells: In Vitro Transwell Migration: Tumor cells in a single cell suspension were plated into the top chamber of 8 μm transwell (Costar) inserts in the presence of serum free/insulin free media. Cell culture media containing 10% fetal bovine serum was placed in the bottom chamber to serve as a chemoattractant. Migration assays were carried out for 12 hrs in a 37° C. cell culture incubator containing 5% CO2. The top surface of the inserts was cleaned with a cotton swab soaked with PBS to remove the non-migrated cells. The transwell inserts were subsequently fixed in methanol and stained with 0.2% crystal violet. The number of migrated cells was counted in 3 independent fields under 20× magnification with a light microscope.
Transwell migration assays were performed in the presence or absence of each inhibitor together with or without the anti-CD151 antibody 1A5.
Experimental for Rap1A: Rap1 activation was analyzed using the Rap1 activation kit (Chemicon). All treatments were performed in the presence of serum free/insulin free media. Cells to be assayed were washed with ice cold PBS and lysed in RIPA like Rap1 buffer (10% glycerol, 50 mM Tris/HCl, 150 mM NaCl, 5 mM phenylmethylsulfonyl fluoride, 1 mM sodium orthovanadate). The lysates were pushed through a 25 gauge syringe and cleared by centrifugation at max speed at 4 degrees for 10 min. Equal amounts of lysates were immunoprecipitated with Ra1GDS RBD conjugated agarose beads for 45 minutes at 4° C. After washing the beads where resuspended with sample buffer and boiled for 5 minutes. The immunoprecipitates were separated by SDS-Page as mentioned above, transferred to PVDF membranes, probed with the anti-Rap1 antibody and horse radish peroxidase-conjugated secondary antibody. After washing the membranes were developed by autoradiography.
To evaluate whether Rap1A was activated in response to CD151 clustering as well as ALCAM-ALCAM ligation, HEp3 cells were treated with 1A5 or seeded on ALCAM-FC for up to 48 hrs. Active Rap1A in the cells was evaluated by immunblotting of GTP-bound Rap1A affinity purified from lysates with Ra1-GDS beads.

For the molecule `COC(=O)[C@H](CC(C)C)NC(=O)c1ccc(NC[C@@H](N)CS)cc1-c1cccc2ccccc12` [GGTI-298], in the series with HEp3 cells (setting [4]), the “Transwell migration in the presence or absence of inhibitor, with or without 1A5” value is recorded as “allowed for migration of untreated cells but prevented 1A5 from inhibiting migration”. On to TGFβ, for which the ALCAM shedding result in the series with PC3 cells [1] is recorded as “promoted ALCAM shedding relative to overall total protein increase”. Besides, the “ALCAM gene transcription (quantitative RT-PCR)” value in the series on PC3 cells [2] (10 ng/ml TGFβ, 48 hrs) was “able to induce ALCAM gene transcription in PC3”. In the series on PC3 cells [2] (cell lysate and conditioned media), the “ALCAM protein expression and ectodomain shedding (Western blot)” value is “increased levels of ALCAM protein expression and ectodomain shedding”. In addition, the “response of ALCAM expression to TGFβ” value in the series on LNCaP cells is listed as “did not respond”.

Turning to `N#CC(=C(/N)Sc1ccccc1N)/C(C#N)=C(\N)Sc1ccccc1N` [U0126], the “Transwell migration in the presence or absence of inhibitor, with or without 1A5” value with HEp3 cells is listed as “inhibited migration independent of anti-CD151 antibody treatment”. `COc1ccc2c(c[n+](C)c3c4cc5c(cc4ccc23)OCO5)c1OC` [Chelerythrin]: in the series with Rap1A, the “Rap1A activation by 1A5 after PKCα disruption” value is on record as 1A5 was unable to promote Rap1A activation. Further, the “Transwell migration in the presence or absence of inhibitor, with or without 1A5” value with HEp3 cells (setting [4]) is given as “allowed for migration of untreated cells but prevented 1A5 from inhibiting migration”.

`NC(=O)c1ccc(-c2nc(-c3ccc4c(c3)OCO4)c(-c3ccccn3)[nH]2)cc1` [SB431542]: in the series with PC3 cells [2] (10 μm inhibitor, 10 ng/ml TGFβ, 48 hrs), the “TGFβ-induced ALCAM expression” value is given as “abrogated”.

B1: ALCAM: circulating soluble Activated Leukocyte Cell Adhesion Molecule (shed ectodomain) in serum (protein, UniProt Q13740 28-527, looked up)
extracellular domain: WYTVNSAYGDTIIIPCRLDVPQNLMFGKWKYEKPDGSPVFIAFRSSTKKSVQYDDVPEYKDRLNLSENYTLSISNARISDEKRFVCMLVTEDNVFEAPTIVKVFKQPSKPEIVSKALFLETEQLKKLGDCISEDSYPDGNITWYRNGKVLHPLEGAVVIIFKKEMDPVTQLYTMTSTLEYKTTKADIQMPFTCSVTYYGPSGQKTIHSEQAVFDIYYPTEQVTIQVLPPKNAIKEGDNITLKCLGNGNPPPEEFLFYLPGQPEGIRSSNTYTLTDVRRNATGDYKCSLIDKKSMIASTAITVHYLDLSLNPSGEVTRQIGDALPVSCTISASRNATVVWMKDNIRLRSSPSFSSLHYQDAGNYVCETALQEVEGLKKRESLTLIVEGKPQIKMTKKTDPSGLSKTIICHVEGFPKPAIQWTITGSGSVINQTEESPYINGRYYSKIIISPEENVTLTCTAENQLERTVNSLNVSAISIPEHDEADEISDENREKVNDQAK
modifications: extracellular domain shed soluble form
Turning to B1, in series [3], the half-life in circulation was 17 h.
